Where a name gives a salt, the structure may show the parent alone.

Type in all cases: physicochemical
Series [1] can be described thus: Pseudo-titration in water with IRA-400(OH) anion exchange resin, samples assayed by HPLC (Example 3). Conditions: not a true titration curve. The procedure:
60 g of Amberlite IRA400 (OH) resin (a strongly anionic quaternary ammonium polystyrene resin, about 16–50 mesh, available from Rohm & Haas, Philadelphia, Pa.,) was prewashed with 4.7 percent (by weight) ammonium hydroxide (50 ml of 28 percent ammonium hydroxide, 250 ml deionized water), followed by extensive washing with deionized water. The final conductivity was 6.1 μS.
Samples containing about 0.9 g of S-[2-[(1-Iminoethyl)amino]ethyl]-2-methyl-L-cysteine di-hydrochloride in 142 ml HCl/water solution, were concentrated on a rotary evaporator at 60° C. to an oil. To the oil, diluted to 60 ml with deionized water, was added aliquots of 0.5 g of washed anion exchange resin while stirring. At five minutes after each aliquot of resin was added, the solution pH was measured and a sample removed through a syringe filter. A total of 9 g of anion exchange resin was added. The final pH was 10.8. The resin was removed by filtration and the filtrate was concentrated to an oil by rotary evaporation at 60° C.; no solids formed. The starting material, final filtrate and all intermediate samples were assayed by HPLC and ion chromatography for chloride.
The diamond (solid line) is pH and square (dashed line) is S-[2-[(1-Iminoethyl)amino]ethyl]-2-methyl-L-cysteine (percent initial, by ion chromatography). […] The diamond (solid line) is pH and triangle (broken line) is chloride (by ion chromatography).
These curves are not true titration curves since samples were withdrawn during the progress of the reaction, and since true equilibrium was not attained before the increments of resin were added. Nevertheless, the graphs of FIG. 2 and FIG. 3 illustrate the expected trends. As resin is added to the S-[2-[(1-Iminoethyl)amino]ethyl]-2-methyl-L-cysteine solution the pH rises with change in slope around pH's of 2, 9 and 11. The pH's of slower rise are representative of the pK's of the carboxylic acid, amine and amidine functional groups, respectively. Above a pH of 10, the S-[2-[(1-Iminoethyl)amino]ethyl]-2-methyl-L-cysteine concentration in solution decreases. […]

Series [2] is described as follows: Stability of free zwitterion samples at different pH by ion pairing gradient HPLC (Example 6, Table 2). The conditions noted are these: summary of Table 2. The procedure:
Amberlite IRA400 (Cl) resin was rinsed with 3M HCl, water, and then 3M NaOH. Aliquots were 100 ml per 10 g of resin. This procedure was repeated 3 times in order to clean the resin and in order to generate the OH form. A final rinse with water was carried out until the conductivity of the eluting water was 2 μS. The resin was then used to titrate 40 ml of a 50 mg/ml solution of S-[2-[(1-Iminoethyl)amino]ethyl]-2-methyl-L-cysteine dihydrochloride. The concentration is expressed in terms of zwitterion equivalents. Aliquots were taken throughout the titration, filtered and analyzed by HPLC. Subsamples of the aliquots were saved for a second HPLC analysis 1 week after the titration was performed in order to assess the stability of the samples. Additional aliquots were taken for Cl analysis using an ion selective electrode. The pH was also monitored throughout the titration. HPLC analyses were performed using an ion pairing gradient method. […] HPLC Method • Pump A: 20 mM KH2PO4, 10 mM Pentane sulfonic acid, adjusted to pH=3 with phosphoric acid • Pump B: Acetonitrile • Gradient: 0% B at 0 min, 26% B at 15 min, 0% B at 15.1 min • Column: YMC ODS-AQ 120 A, 5 μm, 2.6×150 mm • Wavelength=205 nm

Series [3] is described as follows: HPLC analysis after removal of excess HCl with anion exchange resin (Example 4). Conditions: pH raised from 1.04 to 2.5 with Amberlite 400 (OH) resin. The procedure:
To 3.3 g of sample containing around 305 mg/ml S-[2-[(1-Iminoethyl)amino]ethyl]-2-methyl-L-cysteine dihydrochloride and around 0.2 eq excess HCl, was added 16.7 g of deioinized water. The pH was 1.04. To 14 ml of this solution, prewashed Amberlite 400 (OH) resin was added to obtain a ph of 2.5. The anion exchange treatment lightened the color of the solution from light yellow to water white. The resin was removed by filtration and the starting material and filtrate product were analyzed by chloride titration and HPLC.

Regarding `CC(=N)NCCSC[C@](C)(N)C(=O)O` [S-[2-[(1-Iminoethyl)amino]ethyl]-2-methyl-L-cysteine], in series [1], the “pH of slower rise representative of the pK of the amidine group” value is approximately 11, the “pH of slower rise representative of the pK of the amine group” value is on record as approximately 9 and the “pH of slower rise representative of the pK of the carboxylic acid group” value is approximately 2. For the same compound, the “Degradation when made basic (HPLC)” value in series [2] was “degradation is not immediate but instead occurs over a period of days”.
On to `CC(=N)NCCSC[C@](C)(N)C(=O)O` [Example 1, S-[2-[(1-Iminoethyl)amino]ethyl]-2-methyl-L-cysteine, dihydrochloride], for which the “Qualitative HPLC analysis of starting material and product” value in series [3] is “no new peaks and no increase in impurities”.

Source of the values: patent US6995281B2, “Methods for selectively removing counterions from compounds and compounds derived from such methods” (Pfizer, Inc., priority 2003, dated 2006).
